From patent US9174984B2, “Chemical compounds” (GlaxoSmithKline Intellectual Property (No. 2) Limited, priority 2011, dated 2015)
“And” between values parts separate entries of the source, which are not always exact repeats. Identical values can stand only once. Like-named read-outs stand apart in the source and are kept apart here.

How the values were obtained:
Human full-length DNMT1 = target: T1, Human full-length DNMT1 (Homo sapiens, UniProt P26358); experiment: DNMT inhibition assay (3H-SAM filter-binding) against DNMT1; format: biochemical
T1 construct: Human full-length DNMT1 enzyme purchased from BPS Biosciences; purchased BPS Biosciences
T1 sequence (P26358 whole entry): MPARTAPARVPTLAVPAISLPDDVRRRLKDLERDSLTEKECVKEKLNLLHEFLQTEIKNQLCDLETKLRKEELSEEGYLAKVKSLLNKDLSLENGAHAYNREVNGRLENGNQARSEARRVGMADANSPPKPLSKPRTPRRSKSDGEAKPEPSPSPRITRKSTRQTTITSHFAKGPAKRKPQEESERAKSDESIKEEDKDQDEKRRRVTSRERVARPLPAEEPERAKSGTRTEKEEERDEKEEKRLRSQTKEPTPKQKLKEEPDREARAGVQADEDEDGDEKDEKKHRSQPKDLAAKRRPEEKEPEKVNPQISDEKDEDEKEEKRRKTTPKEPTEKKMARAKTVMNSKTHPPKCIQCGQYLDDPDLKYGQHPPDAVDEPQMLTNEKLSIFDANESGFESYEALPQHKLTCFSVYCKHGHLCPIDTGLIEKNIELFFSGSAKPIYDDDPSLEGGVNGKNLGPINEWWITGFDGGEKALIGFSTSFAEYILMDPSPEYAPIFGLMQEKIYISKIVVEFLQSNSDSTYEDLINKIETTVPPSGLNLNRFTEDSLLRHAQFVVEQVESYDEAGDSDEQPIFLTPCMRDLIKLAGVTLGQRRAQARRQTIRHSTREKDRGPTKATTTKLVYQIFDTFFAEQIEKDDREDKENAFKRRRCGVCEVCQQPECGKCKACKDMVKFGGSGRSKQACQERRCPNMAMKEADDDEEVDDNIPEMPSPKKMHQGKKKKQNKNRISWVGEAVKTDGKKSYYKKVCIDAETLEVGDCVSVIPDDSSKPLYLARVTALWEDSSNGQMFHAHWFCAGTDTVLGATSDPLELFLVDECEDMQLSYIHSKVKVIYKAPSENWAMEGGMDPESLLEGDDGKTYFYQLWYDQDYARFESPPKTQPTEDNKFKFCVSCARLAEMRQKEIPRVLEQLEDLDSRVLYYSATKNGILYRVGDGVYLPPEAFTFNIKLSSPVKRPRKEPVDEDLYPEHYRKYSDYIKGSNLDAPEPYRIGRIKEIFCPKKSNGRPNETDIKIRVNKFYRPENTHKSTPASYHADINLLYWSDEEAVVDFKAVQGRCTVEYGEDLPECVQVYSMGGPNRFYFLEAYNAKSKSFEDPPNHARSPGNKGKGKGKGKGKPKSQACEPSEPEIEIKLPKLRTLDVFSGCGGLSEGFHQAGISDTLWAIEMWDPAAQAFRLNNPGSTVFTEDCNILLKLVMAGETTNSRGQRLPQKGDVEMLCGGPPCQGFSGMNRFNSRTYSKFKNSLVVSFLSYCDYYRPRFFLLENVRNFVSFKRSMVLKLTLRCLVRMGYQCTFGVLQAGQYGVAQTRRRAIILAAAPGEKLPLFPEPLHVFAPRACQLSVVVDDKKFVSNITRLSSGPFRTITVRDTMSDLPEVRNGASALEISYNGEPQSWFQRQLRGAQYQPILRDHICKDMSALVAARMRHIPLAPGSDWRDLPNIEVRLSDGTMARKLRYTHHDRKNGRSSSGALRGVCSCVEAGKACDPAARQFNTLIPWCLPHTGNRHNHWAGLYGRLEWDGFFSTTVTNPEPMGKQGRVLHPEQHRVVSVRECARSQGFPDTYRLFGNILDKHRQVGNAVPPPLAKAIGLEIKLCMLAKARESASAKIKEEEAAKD

Human DNMT3b/3L = target: T2, Human DNMT3b/3L (Homo sapiens, UniProt Q9UBC3); experiment: DNMT inhibition assay (3H-SAM filter-binding) against DNMT3b/3L; format: biochemical; conditions: read-out: IC50 against DNMT 3b/3L
T2 construct: truncated 3b (catalytic domain)
Description: DNMT Assays Used for Examples 1-114
Human DNMT3b/3L was coexpressed using truncated 3b (catalytic domain) and 3L (DNA binding domain) at GSK. Human full-length DNMT1 enzyme purchased from BPS Biosciences. Poly(dIdC) DNA (Sigma) was used at 0.002 mg/mL. Tritiated SAM (Perkin Elmer) was used at 500 nM. DNA, DNMT enzyme, and inhibitors were mixed with assay buffer (20 mM Tris pH8, 5% glycerol, 1 mM EDTA, 100 μg/mL BSA, 1 mM DTT, 50 mM NaCl) and pre-incubated without SAM for 30 min. H3 SAM was then added to initiate the methylation reaction which continues at 37° C. for 1 h. Reaction mixture was then transferred to a filter plate (Millipore Multiscreen HTS DE), then washed with 50 mM H2PO4 and 95% Ethanol. Scintillation counts were measured on the Perkin Elmer Microbeta scintillation counter.
DNMT Assays Used for Examples 115-120
DNMT enzymes were produced by GlaxoSmithKline. Human DNMT3b/3L was coexpressed using truncated 3b (catalytic domain) and 3L (DNA binding domain). DNMT1 was human, full-length protein. 3H-SAM was purchased from Perkin Elmer. Custon DNA oligonucleotide substrates were purchased from Integrated DNA technologies.
28-mer DNA Oligonucleotide Duplex (for DNMT3b/3L)
DNMT enzyme was preincubated with compound for 1 hr at RT, after which SAM and DNA were added to initiate the methylation reaction. The methylation reaction was quenched after 20 min upon the addition of >100 fold excess non-radioactive SAM. The quenched reaction mixture (80%) was transferred to a DEAE filter binding plate (Millipore Multiscreen HTS DE), washed with 3 volumes of 50 mM phosphate buffer and dried. Scintillation cocktail (MicroScint-20) was added to the plate and radioactivity (3H-DNA) was measured using a Perkin Elmer TopCount scintillation counter.
Final reagent concentrations (prior to quench) consisted of the following:
DNMT3b/3L (10 nM), 200 nM DNA, 200 nM 3H-SAM in 20 mM Tris (pH 8), 1 mM DTT, 1 mM EDTA, 25 mM NaCl, 1 mM CHAPS and 2% DMSO.

[1] = at least one experimental run or average of several runs, Examples 1-114 and 115-120 use different protocols

Compound | IC50 (Human full-length DNMT1; [1]) | IC50 (Human DNMT3b/3L; [1]) | also measured
Nc1ccccc1CNC(=S)NCc1ccnc2[nH]ccc12 [Example 26, 1-((1H-pyrrolo[2,3-b]pyridin-4-yl)methyl)-3-(2-aminobenzyl)thiourea] | 19.1 to 300 µM |  | 
Nc1ccc([N+](=O)[O-])cc1CNC(=S)NCc1ccnc2[nH]ccc12 [Example 30, 1-((1H-pyrrolo[2,3-b]pyridin-4-yl)methyl)-3-(2-amino-5-nitrobenzyl)thiourea] | 19.1 to 300 µM and ≤ 100 µM |  | 
C=CC(=O)Nc1cc(CNC(=S)NCc2ccnc3[nH]ccc23)cc(C(F)(F)F)c1 [Example 35, N-(3-((3-((1H-pyrrolo[2,3-b]pyridin-4-yl)methyl)thioureido)methyl)-5-(trifluoromethyl)phenyl)acrylamide] | 19.1 to 300 µM | ≤ 20 µM | 
COCC#CC(=O)Nc1cccc(CNC(=S)NCc2ccnc3[nH]ccc23)c1 [Example 41, N-(3-((3-((1H-pyrrolo[2,3-b]pyridin-4-yl)methyl)thioureido)methyl)phenyl)-4-methoxybut-2-ynamide] |  |  | IC50 (Human full-length DNMT1; read-out: IC50 against DNMT 1): 19.1 to 300 µM and ≤ 200 µM; IC50 (Human DNMT3b/3L): ≤ 1 µM
CC#CC(=O)Nc1ccccc1CNS(=O)(=O)NCc1ccnc2[nH]ccc12 [Example 42, N-(2-(((N-((1H-pyrrolo[2,3-b]pyridin-4-yl)methyl)sulfamoyl)amino)methyl)phenyl)but-2-ynamide] | 19.1 to 300 µM | ≤ 20 µM | 
NC(CCCCNC(=S)NCc1ccnc2[nH]ccc12)C(=O)O (stereo not shown) [Example 46, 6-(3-((1H-pyrrolo[2,3-b]pyridin-4-yl)methyl)thioureido)-2-aminohexanoic acid] | 19.1 to 300 µM |  | 
O=C(C#Cc1ccc(F)cc1)NCCNC(=S)NCc1ccnc2[nH]ccc12 [Example 85, N-(2-(3-((1H-pyrrolo[2,3-b]pyridin-4-yl)methyl)thioureido)ethyl)-3-(4-fluorophenyl)propiolamide] | 19.1 to 300 µM and ≤ 200 µM |  | 
O=C(C#Cc1cccc(F)c1)NCCNC(=S)NCc1ccnc2[nH]ccc12 [Example 86, N-(2-(3-((1H-pyrrolo[2,3-b]pyridin-4-yl)methyl)thioureido)ethyl)-3-(3-fluorophenyl)propiolamide] | 19.1 to 300 µM and 75 µM and ≤ 100 µM |  | 
O=C(C#Cc1ccc([N+](=O)[O-])cc1)NCCNC(=S)NCc1ccnc2[nH]ccc12 [Example 87, N-(2-(3-((1H-pyrrolo[2,3-b]pyridin-4-yl)methyl)thioureido)ethyl)-3-(4-nitrophenyl)propiolamide] | 19.1 to 300 µM and ≤ 100 µM | ≤ 1 µM | 
Cc1ccc(C#CC(=O)NCCNC(=S)NCc2ccnc3[nH]ccc23)cc1 [Example 88, N-(2-(3-((1H-pyrrolo[2,3-b]pyridin-4-yl)methyl)thioureido)ethyl)-3-(p-tolyl)propiolamide] | 19.1 to 300 µM |  | 
O=C(C#Cc1ccc(Cl)cc1)NCCNC(=S)NCc1ccnc2[nH]ccc12 [Example 89, N-(2-(3-((1H-pyrrolo[2,3-b]pyridin-4-yl)methyl)thioureido)ethyl)-3-(4-chlorophenyl)propiolamide] | 19.1 to 300 µM and ≤ 200 µM |  | 
COc1ccc(C#CC(=O)NCCNC(=S)NCc2ccnc3[nH]ccc23)cc1OC [Example 92, N-(2-(3-((1H-pyrrolo[2,3-b]pyridin-4-yl)methyl)thioureido)ethyl)-3-(3,4-dimethoxyphenyl)propiolamide] | 19.1 to 300 µM and ≤ 100 µM |  | 
O=C(C#Cc1ccc2c(c1)OCO2)NCCNC(=S)NCc1ccnc2[nH]ccc12 [Example 93, N-(2-(3-((1H-pyrrolo[2,3-b]pyridin-4-yl)methyl)thioureido)ethyl)-3-(benzo[d][1,3]dioxol-5-yl)propiolamide] | 19.1 to 300 µM and ≤ 100 µM |  | 
C=CC(=O)Nc1ccc([N+](=O)[O-])cc1CNC(=S)NCc1ccnc2[nH]ccc12 [Example 110, N-(2-((3-((1H-Pyrrolo[2,3-b]pyridin-4-yl)methyl)thioureido)methyl)-4-nitrophenyl)acrylamide] | 19.1 to 300 µM |  | 
NCC(=O)Nc1ccccc1CNC(=S)NCc1ccnc2[nH]ccc12 [Example 114, N-(2-((3-((1H-Pyrrolo[2,3-b]pyridin-4-yl)methyl)thioureido)methyl)phenyl)-2-aminoacetamide] | 19.1 to 300 µM and ≤ 200 µM |  | 
S=C(NCc1ccccc1C1CCCNC1)NCc1ccnc2[nH]ccc12 (stereo not shown) [Example 116, 1-((1H-pyrrolo[2,3-b]pyridin-4-yl)methyl)-3-(2-(piperidin-3-yl)benzyl)thiourea] | ≤ 100 µM | ≤ 10 µM | 
CN(C(=O)C#Cc1ccccc1)c1cccc(CNC(=S)NCc2ccnc3[nH]ccc23)c1 [Example 117, N-(3-((3-((1H-pyrrolo[2,3-b]pyridin-4-yl)methyl)thioureido)methyl)phenyl)-N-methyl-3-phenylpropiolamide] |  | ≤ 10 µM | 
O=C(C#CC1CCCC1)Nc1cccc(CNC(=O)NCc2ccnc3[nH]ccc23)c1 [Example 118, N-(3-((3-((1H-pyrrolo[2,3-b]pyridin-4-yl)methyl)ureido)methyl)phenyl)-3-cyclopentylpropiolamide] |  | ≤ 1 µM | 
O=C(NCc1ccnc2[nH]ccc12)NC1CN(C(=O)C#CC2CCCCC2)C1 [Example 119, 1-((1H-pyrrolo[2,3-b]pyridin-4-yl)methyl)-3-(1-(3-cyclohexylpropioloyl)azetidin-3-yl)urea] |  | ≤ 1 µM | 
O=C(NCc1ccccc1-c1cscn1)NCc1ccnc2[nH]ccc12 [Example 120, 1-((1H-pyrrolo[2,3-b]pyridin-4-yl)methyl)-3-(2-(thiazol-4-yl)benzyl)urea] |  | ≤ 1 µM | 
